Values after ≈ are worked out from the molar mass of the structure shown. Each block holds one compound with its values, some of them ahead of it.
Legend:
HOS-TE85 [1] = experiment: Antiproliferative activity against human MNNG/HOS cells assessed as cell growth inhibition measured after 72 hrs by CCK-8 assay; type: functional, cell-based; details: HOS-TE85, 72 h
[2] = Microsomal stability in human liver microsomes assessed as intrinsic clearance at 0.1 uM incubated for 10 mins in presence of NADPH by LC-MS/MS analysis; type: ADME, Microsome
[3] = Microsomal stability in rat liver microsomes assessed as intrinsic clearance at 0.1 uM incubated for 10 mins in presence of NADPH by LC-MS/MS analysis; type: ADME, Microsome
[4] = Microsomal stability in mouse liver microsomes assessed as intrinsic clearance at 0.1 uM incubated for 10 mins in presence of NADPH by LC-MS/MS analysis; type: ADME, Microsome
[5] = Kinetic solubility of compound at pH 6.8 by turbidimetry method; type: physicochemical; details: buffer, read-out: Kinetic_solubility
[6] = Kinetic solubility of compound at pH 7.4 by turbidimetry method; type: physicochemical; details: buffer, read-out: Kinetic_solubility
SJSA-1 [7] = experiment: Antiproliferative activity against human SJSA-1 assessed as cell growth inhibition at 1 uM measured after 72 hrs by CCK-8 assay relative to control; type: functional
U2OS = experiment: Antiproliferative activity against human U2OS cells assessed as cell growth inhibition at 1 uM measured after 72 hrs by CCK-8 assay relative to control; type: functional
HOS = experiment: Antiproliferative activity against human HOS cells assessed as cell growth inhibition at 1 uM measured after 72 hrs by CCK-8 assay relative to control; type: functional
HOS-TE85 [8] = experiment: Antiproliferative activity against human MNNG/HOS cells assessed as cell growth inhibition at 1 uM measured after 72 hrs by CCK-8 assay relative to control; type: functional
MG-63 [9] = experiment: Antiproliferative activity against human MG-63 cells assessed as cell growth inhibition at 1 uM measured after 72 hrs by CCK-8 assay relative to control; type: functional
143B = experiment: Antiproliferative activity against human 143B cells assessed as cell growth inhibition at 1 uM measured after 72 hrs by CCK-8 assay relative to control; type: functional
SJSA-1 [10] = experiment: Antiproliferative activity against human SJSA-1 cells assessed as cell growth inhibition measured after 72 hrs by CCK-8 assay; type: functional, cell-based; details: SJSA-1, 72 h
MG-63 [11] = experiment: Antiproliferative activity against human MG-63 cells assessed as cell growth inhibition measured after 72 hrs by CCK-8 assay; type: functional, cell-based; details: MG-63, 72 h
HOS-TE85 [12] = experiment: Antitumor activity against human MNNG/HOS cells xenografted in female BALB/c nude mouse assessed as tumor growth inhibition at 30 mg/kg, po administered daily for 18 days relative to control; type: functional; details: HOS-TE85, 432 h, time 18 day, read-out: TGI
[13] = Toxicity in BALB/c nude mouse xenografted with human MNNG/HOS cells assessed as body weight loss at 62.5 mg/kg, ip administered twice per day for 18 days; type: organism-based, HOS-TE85; details: in vivo, 432 h, time 18 day

SMILES: CC(F)(F)c1cccc(N2C(=O)CSC2c2cccc(C(=O)NCCCCc3ccccc3)c2)c1 (stereo unspecified)
IC50 (HOS-TE85 [1]): 29.1 nM
intrinsic clearance (CLint) [2]: 1750 mL/min/g
intrinsic clearance (CLint) [3]: 2323 mL/min/g
intrinsic clearance (CLint) [4]: 2014 mL/min/g
solubility kinetic [5]: 10 µM (≈ 4.95 µg/mL)
solubility kinetic [6]: 2 µM (≈ 0.989 µg/mL)
inhibition at 1 µM (SJSA-1 [7]): 68%
inhibition at 1 µM (U2OS): 24%
inhibition at 1 µM (HOS): 23%
inhibition at 1 µM (HOS-TE85 [8]): 93%
inhibition at 1 µM (MG-63 [9]): 92%
inhibition at 1 µM (143B): 1%

SMILES: Cc1ccnc(N2C(=O)CSC2c2cccc(C(=O)NCCCCn3cccn3)c2)c1 (racemic)
IC50 (HOS-TE85 [1]): 19.6 nM
intrinsic clearance (CLint) [2]: 128.7 mL/min/g
intrinsic clearance (CLint) [3]: 1022 mL/min/g
intrinsic clearance (CLint) [4]: 392 mL/min/g
solubility kinetic [5]: 50 µM (≈ 21.8 µg/mL)
solubility kinetic [6]: 50 µM (≈ 21.8 µg/mL)
IC50 (SJSA-1 [10]): 33.2 nM
IC50 (MG-63 [11]): 38.9 nM

SMILES: COc1ccc(F)cc1N1C(=O)CSC1c1cccc(C(=O)NCCCCc2ccccc2)c1 (stereo unspecified)
IC50 (HOS-TE85 [1]): 8.8 nM
intrinsic clearance (CLint) [2]: 1253 mL/min/g
intrinsic clearance (CLint) [3]: 2298 mL/min/g
intrinsic clearance (CLint) [4]: 2247 mL/min/g
solubility kinetic [5]: 10 µM (≈ 4.79 µg/mL)
solubility kinetic [6]: 10 µM (≈ 4.79 µg/mL)
inhibition at 1 µM (SJSA-1 [7]): 76%
inhibition at 1 µM (U2OS): 32%
inhibition at 1 µM (HOS): 46%
inhibition at 1 µM (HOS-TE85 [8]): 95%
inhibition at 1 µM (MG-63 [9]): 86%
inhibition at 1 µM (143B): 62%

SMILES: COc1ccc(C)cc1N1C(=O)CSC1c1cccc(C(=O)NCCCCc2ccccc2)c1 (stereo unspecified)
IC50 (HOS-TE85 [1]): 300 nM
inhibition at 1 µM (SJSA-1 [7]): 79%
inhibition at 1 µM (U2OS): 30%
inhibition at 1 µM (HOS): 42%
inhibition at 1 µM (HOS-TE85 [8]): 95%
inhibition at 1 µM (MG-63 [9]): 92%
inhibition at 1 µM (143B): 29%

SMILES: COc1ccc(OC)c(N2C(=O)CSC2c2cccc(C(=O)NCCCCc3ccccc3)c2)c1 (stereo unspecified)
IC50 (HOS-TE85 [1]): > 1000 nM
inhibition at 1 µM (SJSA-1 [7]): 48%
inhibition at 1 µM (U2OS): 1%
inhibition at 1 µM (HOS): 5%
inhibition at 1 µM (HOS-TE85 [8]): 20%
inhibition at 1 µM (MG-63 [9]): 92%
inhibition at 1 µM (143B): 2%

SMILES: CNC(=O)c1cc(Oc2ccc(NC(=O)Nc3ccc(Cl)c(C(F)(F)F)c3)cc2)ccn1 [SORAFENIB]
inhibition in vivo at 30 mg/kg (HOS-TE85 [12]): 44.2%
Activity [13]: Non-Toxic

Continued, in another order:

intrinsic clearance (CLint) [2]: 1844 mL/min/g
intrinsic clearance (CLint) [3]: 3244 mL/min/g
intrinsic clearance (CLint) [4]: 2737 mL/min/g
solubility kinetic [5]: 10 µM (≈ 4.49 µg/mL)
solubility kinetic [6]: 10 µM (≈ 4.49 µg/mL)
SMILES: O=C(NCCCCc1ccccc1)c1cccc(C2SCC(=O)N2c2cccc(F)c2)c1 (stereo unspecified)
IC50 (HOS-TE85 [1]): 32.4 nM
inhibition at 1 µM (SJSA-1 [7]): 80%
inhibition at 1 µM (U2OS): 39%
inhibition at 1 µM (HOS): 84%
inhibition at 1 µM (HOS-TE85 [8]): 94%
inhibition at 1 µM (MG-63 [9]): 92%
inhibition at 1 µM (143B): 63%

intrinsic clearance (CLint) [2]: 2657 mL/min/g
intrinsic clearance (CLint) [3]: 2908 mL/min/g
intrinsic clearance (CLint) [4]: 2948 mL/min/g
solubility kinetic [5]: 20 µM (≈ 9.49 µg/mL)
solubility kinetic [6]: 10 µM (≈ 4.75 µg/mL)
SMILES: COc1ccccc1N1C(=O)C(C)SC1c1cccc(C(=O)NCCCCc2ccccc2)c1 (stereo unspecified)
IC50 (HOS-TE85 [1]): 45.1 nM
inhibition at 1 µM (SJSA-1 [7]): 84%
inhibition at 1 µM (U2OS): 38%
inhibition at 1 µM (HOS): 82%
inhibition at 1 µM (HOS-TE85 [8]): 95%
inhibition at 1 µM (MG-63 [9]): 94%
inhibition at 1 µM (143B): 61%

intrinsic clearance (CLint) [2]: 2553 mL/min/g
intrinsic clearance (CLint) [3]: 3139 mL/min/g
intrinsic clearance (CLint) [4]: 2936 mL/min/g
solubility kinetic [5]: 10 µM (≈ 4.45 µg/mL)
solubility kinetic [6]: 10 µM (≈ 4.45 µg/mL)
SMILES: Cc1cccc(N2C(=O)CSC2c2cccc(C(=O)NCCCCc3ccccc3)c2)c1 (stereo unspecified)
IC50 (HOS-TE85 [1]): 93.2 nM
inhibition at 1 µM (SJSA-1 [7]): 84%
inhibition at 1 µM (U2OS): 39%
inhibition at 1 µM (HOS): 84%
inhibition at 1 µM (HOS-TE85 [8]): 96%
inhibition at 1 µM (MG-63 [9]): 93%
inhibition at 1 µM (143B): 71%

intrinsic clearance (CLint) [2]: 1712 mL/min/g
intrinsic clearance (CLint) [3]: 2946 mL/min/g
intrinsic clearance (CLint) [4]: 2014 mL/min/g
solubility kinetic [5]: 20 µM (≈ 8.97 µg/mL)
solubility kinetic [6]: 10 µM (≈ 4.49 µg/mL)
SMILES: O=C(NCCCCc1ccccc1)c1cccc(C2SCC(=O)N2c2ccccc2F)c1 (stereo unspecified)
IC50 (HOS-TE85 [1]): 34.1 nM
inhibition at 1 µM (SJSA-1 [7]): 80%
inhibition at 1 µM (U2OS): 38%
inhibition at 1 µM (HOS): 83%
inhibition at 1 µM (HOS-TE85 [8]): 95%
inhibition at 1 µM (MG-63 [9]): 92%
inhibition at 1 µM (143B): 59%

Source: ChEMBL document CHEMBL5154661, “Novel 2-phenyl-3-(Pyridin-2-yl) thiazolidin-4-one derivatives as potent inhibitors for proliferation of osteosarcoma cells in vitro and in vivo” (Eur J Med Chem, 2022)
